Experimental findings from ChEMBL document CHEMBL1201862, “PubChem BioAssay data set” (2004) are described below.

Active and inactive are the calls of the source.

For one assay, the system named is SN12K1. The experiment in a line: cells. Particulars: Homo sapiens. It counts as functional.
The subject of another assay is P388. The assay is described as follows: cells. The settings on record: Mus musculus. Format: functional.
Another assay has as its system P388/ADR. The experiment in a line: cells. It counts as functional. Particulars: Mus musculus.
Assay [1] in a line: blockers of HIV-1 envelope-mediated cell-cell fusion – cherry-pick, dose response (AID 652057). Format: functional, cell-based.
Assay [2] in a line: HIV-1 AD8 envelope cell-cell fusion blockers – cherry-pick, dose response (AID 652062).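 Note: luciferase signal from cell-cell fusion driven by HIV-1 clade B AD8 Env; potency is for inhibitors of fusion seen as a drop in luminescence.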 It counts as functional, cell-based.
Assay [3] in a line: viability of PTEN-deleted HCT116 cells – cell-based, HCT116 PTEN knockout, dose response (AID 1047).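 Note: HCT116 colon tumor cells with PTEN knocked out; cells exposed to compound for 60 hours before readout; potency for loss of cell viability measured by luminescence.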 It counts as functional.
Assay [4] can be described thus: viability of HCT116 lacking mutant beta-catenin – cell-based, human colon tumor, dose response (AID 1045).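 Note: HCT116 colon tumor cells with beta catenin knocked out; cells exposed to compound for 60 hours.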 Format: functional.
Assay [5] can be described thus: A549 cell cytotoxicity, dose response, cytotoxicity control, plate reader, cherry-pick, antagonist series (AID 743412). It counts as functional, cell-based.
The nature of assay [6]: toxicity toward HepG2 liver cells – cell-based, plate reader, cherry-pick, antagonist series, cytotoxicity control, dose response (AID 743416). It counts as functional.
The target in assay [7] is T1, Sentrin-specific protease 6 (Homo sapiens, UniProt Q9GZR1).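 Note: Luminescence-based dose-response confirmatory assay of SENP6 inhibition, following up an ultra-high-throughput screen.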
T1 sequence (Q9GZR1 whole entry): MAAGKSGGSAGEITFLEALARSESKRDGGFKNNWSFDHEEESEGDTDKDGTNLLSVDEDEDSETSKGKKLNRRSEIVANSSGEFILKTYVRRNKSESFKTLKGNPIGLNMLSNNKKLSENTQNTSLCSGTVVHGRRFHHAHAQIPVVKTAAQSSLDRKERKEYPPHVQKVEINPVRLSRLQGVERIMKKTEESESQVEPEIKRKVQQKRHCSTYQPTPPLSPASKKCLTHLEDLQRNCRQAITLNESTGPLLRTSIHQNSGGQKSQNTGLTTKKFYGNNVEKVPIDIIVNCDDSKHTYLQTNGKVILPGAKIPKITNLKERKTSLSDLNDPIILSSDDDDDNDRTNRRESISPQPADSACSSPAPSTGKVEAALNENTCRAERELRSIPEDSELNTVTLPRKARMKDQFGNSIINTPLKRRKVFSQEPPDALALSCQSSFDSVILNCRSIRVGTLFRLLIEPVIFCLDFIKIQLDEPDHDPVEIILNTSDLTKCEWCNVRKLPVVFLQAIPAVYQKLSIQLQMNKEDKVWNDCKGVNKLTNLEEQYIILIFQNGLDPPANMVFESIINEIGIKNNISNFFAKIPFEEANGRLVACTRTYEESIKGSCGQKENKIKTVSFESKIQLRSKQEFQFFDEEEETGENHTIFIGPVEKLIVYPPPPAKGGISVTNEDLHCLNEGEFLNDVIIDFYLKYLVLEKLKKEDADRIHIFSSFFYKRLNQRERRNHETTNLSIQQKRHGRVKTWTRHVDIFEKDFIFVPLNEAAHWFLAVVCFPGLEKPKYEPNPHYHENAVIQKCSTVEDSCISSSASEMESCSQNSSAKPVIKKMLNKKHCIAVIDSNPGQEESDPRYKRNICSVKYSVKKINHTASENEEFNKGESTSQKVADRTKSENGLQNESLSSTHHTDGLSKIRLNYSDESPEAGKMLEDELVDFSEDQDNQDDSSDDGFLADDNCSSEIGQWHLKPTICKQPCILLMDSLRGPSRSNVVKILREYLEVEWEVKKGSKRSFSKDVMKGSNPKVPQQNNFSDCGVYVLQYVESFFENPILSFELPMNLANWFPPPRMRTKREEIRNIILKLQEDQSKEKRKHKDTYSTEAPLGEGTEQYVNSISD
It counts as functional.

The nature of assay [8]: viability of uninfected HEp-2 cells – cell-based, HTS, cytotoxicity control for RSV inhibitor project, dose response (AID 2410). It counts as functional. Particulars: human respiratory syncytial virus.
The target in assay [9] is T2, Sentrin-specific protease 7 (Homo sapiens, UniProt Q9BQF6).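 Note: Luminescence-based dose-response confirmation of ultra-high-throughput screening hits, measuring inhibition of SENP7.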
T2 sequence (Q9BQF6 whole entry): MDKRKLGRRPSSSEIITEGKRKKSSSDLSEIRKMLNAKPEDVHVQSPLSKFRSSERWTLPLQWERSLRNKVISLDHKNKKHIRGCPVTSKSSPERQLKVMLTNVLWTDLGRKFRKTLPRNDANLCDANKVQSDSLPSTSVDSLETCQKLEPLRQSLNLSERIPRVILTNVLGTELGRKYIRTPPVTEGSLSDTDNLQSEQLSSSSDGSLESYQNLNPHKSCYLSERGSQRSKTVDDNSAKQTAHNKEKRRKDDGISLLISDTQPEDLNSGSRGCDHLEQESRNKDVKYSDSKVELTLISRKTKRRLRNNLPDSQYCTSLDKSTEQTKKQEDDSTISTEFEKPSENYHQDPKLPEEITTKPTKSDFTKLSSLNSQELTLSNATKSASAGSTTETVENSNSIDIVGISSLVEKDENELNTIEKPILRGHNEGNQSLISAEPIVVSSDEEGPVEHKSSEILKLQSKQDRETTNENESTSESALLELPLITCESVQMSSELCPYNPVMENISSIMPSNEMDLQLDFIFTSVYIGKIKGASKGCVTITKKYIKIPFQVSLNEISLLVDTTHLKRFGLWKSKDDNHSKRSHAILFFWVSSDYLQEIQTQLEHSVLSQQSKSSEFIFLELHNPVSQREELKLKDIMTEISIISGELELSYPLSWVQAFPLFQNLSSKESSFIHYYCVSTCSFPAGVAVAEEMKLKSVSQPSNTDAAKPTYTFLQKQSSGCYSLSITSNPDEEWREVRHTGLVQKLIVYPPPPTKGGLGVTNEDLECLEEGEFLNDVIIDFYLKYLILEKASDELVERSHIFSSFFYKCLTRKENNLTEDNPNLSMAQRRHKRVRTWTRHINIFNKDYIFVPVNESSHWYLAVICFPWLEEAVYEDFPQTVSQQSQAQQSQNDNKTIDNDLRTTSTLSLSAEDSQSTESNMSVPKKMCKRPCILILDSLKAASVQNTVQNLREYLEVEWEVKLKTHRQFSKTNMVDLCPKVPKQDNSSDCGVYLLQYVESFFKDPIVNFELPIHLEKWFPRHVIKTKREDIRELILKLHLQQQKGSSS
Format: functional.

The target in assay [10] is T3, Sentrin-specific protease 8 (Homo sapiens, UniProt Q96LD8).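 Note: luminescence read-out of SENP8 inhibition, dose-response confirmation following an ultra-high-throughput screen.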
T3 sequence (Q96LD8 whole entry): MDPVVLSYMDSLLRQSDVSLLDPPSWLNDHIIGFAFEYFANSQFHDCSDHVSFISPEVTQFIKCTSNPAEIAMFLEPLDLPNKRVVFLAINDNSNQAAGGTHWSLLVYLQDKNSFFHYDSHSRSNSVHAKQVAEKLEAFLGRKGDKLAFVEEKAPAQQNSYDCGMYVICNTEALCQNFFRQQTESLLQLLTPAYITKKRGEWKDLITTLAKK
It counts as functional.

A further assay addresses T4, Caspase-3 (Homo sapiens, UniProt P42574).
T4 sequence (P42574 whole entry): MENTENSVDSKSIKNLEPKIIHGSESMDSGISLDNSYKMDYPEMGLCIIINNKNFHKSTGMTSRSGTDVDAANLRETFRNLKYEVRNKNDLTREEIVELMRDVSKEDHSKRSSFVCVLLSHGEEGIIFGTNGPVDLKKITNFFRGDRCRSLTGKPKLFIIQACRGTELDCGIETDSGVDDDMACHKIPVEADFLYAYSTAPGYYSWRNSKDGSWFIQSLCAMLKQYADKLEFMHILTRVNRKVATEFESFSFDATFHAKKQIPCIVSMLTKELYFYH
Format: functional.

The target in another assay is T5, Protein skinhead-1 (Caenorhabditis elegans, UniProt P34707).
T5 sequence (P34707 whole entry): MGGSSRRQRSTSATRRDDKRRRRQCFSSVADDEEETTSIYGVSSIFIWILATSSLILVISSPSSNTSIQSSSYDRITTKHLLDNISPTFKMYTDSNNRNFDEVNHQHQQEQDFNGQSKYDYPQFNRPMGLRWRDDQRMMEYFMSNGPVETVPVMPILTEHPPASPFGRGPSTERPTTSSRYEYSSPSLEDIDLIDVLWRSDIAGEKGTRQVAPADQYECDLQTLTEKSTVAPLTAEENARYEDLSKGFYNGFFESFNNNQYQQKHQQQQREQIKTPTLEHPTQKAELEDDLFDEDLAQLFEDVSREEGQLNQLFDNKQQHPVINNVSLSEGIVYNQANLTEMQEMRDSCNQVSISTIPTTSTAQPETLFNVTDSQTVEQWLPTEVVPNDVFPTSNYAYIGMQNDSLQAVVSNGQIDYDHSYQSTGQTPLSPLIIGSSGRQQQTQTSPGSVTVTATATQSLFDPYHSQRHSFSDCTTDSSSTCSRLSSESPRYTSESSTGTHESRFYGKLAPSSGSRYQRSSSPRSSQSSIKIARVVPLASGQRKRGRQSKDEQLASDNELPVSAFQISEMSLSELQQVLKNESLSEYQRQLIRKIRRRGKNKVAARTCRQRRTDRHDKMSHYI
It counts as functional.

As usually defined, the GI50 is the concentration that inhibits growth by half. In the case of `COc1cc2c(cc1Oc1c(Oc3c(O)c(OC)cc4c3C(CC(C)C)N(C)CC4)c(OC)cc3c1C(CC(C)C)N(C)CC3)C(CC(C)C)N(C)CC2` (centres undefined), the GI50 in the assay on SN12K1 was 0.794 µM (active); in the assay on P388, 0.279 µM (active); in the assay on P388/ADR, 0.706 µM (active).

Take `O=C1C(=O)c2cc([N+](=O)[O-])ccc2-c2ccc([N+](=O)[O-])cc21`: the GI50 in the assay on SN12K1 was 0.29 µM (active); in the assay with P388, 0.201 µM (active); with P388/ADR, 0.292 µM (active).

In the case of `CCCCCCCCCCCCCCCCOCC(COP(=O)([O-])OCC[N+](C)(C)C)OCCCCCCCCCCCCCCCC` (centres undefined), the GI50 with SN12K1, in the assay on P388 and in the assay with P388/ADR was > 100 µM (inactive) each time.

By AC50 is commonly meant the concentration giving half of the maximal activity seen. On to `COc1cccc(S(=O)(=O)N(C)C[C@H]2Oc3cc(C4=CCCC4)ccc3S(=O)(=O)N([C@H](C)CO)C[C@H]2C)c1`, for which the AC50 in assay [1] is 3.31 µM (active); in assay [2], 3.77 µM (active).

Turning to `CCN(CC)c1c(C)c(C(=O)OC)nn1-c1ccccc1`, the GI50 with SN12K1 was > 100 µM (inactive); in the assay on P388, 34.8 µM (inactive); with P388/ADR it was 31.6 µM (inactive).

The term EC50 denotes the concentration needed to bring the measured effect to its halfway point. In the case of `O=C(N/N=C/c1cccs1)c1cccc(NC(=O)c2ccc(Cl)cc2)c1`, the concentration giving a half-maximal response (EC50) in assay [3] is 61.1 µM (active); in [4] it was 55.4 µM (active).

On to `Cc1c(Cl)cccc1N/C(SCC(=O)N1CCCCCC1)=C(/C#N)c1nc2ccccc2s1`, for which the 50% effective concentration (EC50) in assay [3] is 4.06 µM (active); in assay [4] it was 4.02 µM (active).

For the compound `CN(c1ccccc1)c1c(-c2ccccc2)c(=O)oc2c1ccc1occc12`, the GI50 in the assay on SN12K1 is > 100 µM (inactive); in the assay with P388 it was 37.8 µM (inactive); in the assay on P388/ADR, 74.6 µM (inactive).

For the compound `Nc1c(C(=O)Nc2ccc(C3=NCCN3)cc2)cccc1C(=O)Nc1ccc(C2=NCCN2)cc1`, the GI50 in the assay on SN12K1 is > 100 µM (inactive); in the assay with P388 it was 12.5 µM (inactive); with P388/ADR, > 100 µM (inactive).

`COc1ccc(/C(O)=C/c2nc3ccc(C(=O)NCCc4cccc(C)c4)cc3nc2O)cc1OC`: the EC50 in assay [3] is 6.66 µM (active); in [4], 5.65 µM (active).

Take `Oc1ncc(N(CCCl)CCCl)c(O)n1` [URACIL MUSTARD]: the figures for the GI50 with SN12K1, in the assay with P388 and in the assay with P388/ADR were 17.4 µM (inactive), 1.26 µM (inactive) and 1.77 µM (inactive), respectively.

Regarding `COc1ccccc1CN(C)C[C@@H]1OCc2cnnn2CCCC(=O)N([C@H](C)CO)C[C@H]1C`, the AC50 in [5] was > 52 µM (inactive); in assay [6], 39.8 µM (active).

As for `O=C(NC(=S)Nc1ccc(NC(=O)c2cccs2)cc1)c1cc2ccccc2o1`, the EC50 in assay [3] is 15.5 µM (active); in [4], 22.6 µM (active).

Take `C=C1CC(OC)(C(O)C(=O)N[C@H]2OCO[C@H]3C2O[C@H](C[C@@H](CO)OC)C(C)(C)C3OC)O[C@H](C)[C@@H]1C` (some centres undefined): the GI50 in the assay on SN12K1, with P388 and in the assay on P388/ADR was < 0.00931 µM (active) in each case.

For `COc1ccc2c(c1[N+](=O)[O-])CC[C@@H]1[C@@H]2CC[C@]2(C)C(=O)CC[C@@H]12`, the GI50 with SN12K1 is > 25 µM (inactive); in the assay with P388 it was > 25 µM (inactive); with P388/ADR, 20.9 µM (inactive).

In general, IC50 refers to the concentration at which inhibition is half-maximal. By CC50 is commonly meant the concentration at which the toxic effect on the cells reaches its halfway point. As for `Cc1cccnc1Nc1nc(-c2ccc(O)cc2O)cs1`, the IC50 in [7] was 8 µM (active); in assay [9] it was 3.79 µM (active); in [10], 15.5 µM (active); on Caspase-3, 41.8 µM (active). Besides, in assay [8], the CC50 was 27 µM (active).

Take `Cc1ccccc1-c1nnc(-c2ccccc2C)o1`: the IC50 in assay [7] is 6.65 µM (active); in assay [9], 12.1 µM (active); at Protein skinhead-1, > 100 µM (inactive); in assay [10], 95.5 µM (active); on Caspase-3, 20.5 µM (active).
